From patent publication US12133846B2, “Electrophilic androgen receptor (AR) antagonists for AR downregulation and ferroptosis induction in cancer cells” (priority 2019, dated 2024)
Read-outs that look alike come from different tables or passages of the source.

Key:
VCaP cells [1] = assay: 3-79 plus BSO, MTT viability, VCaP cells; assay type: cell-based; details: for rescue of 3-79 plus BSO-induced viability loss, VCaP cells: 3-79 10 μM, BSO 100 μM, DFO 100 μM, α-Toc 100 μM, Fer-1 0.5 μM
Procedure: 3-79 and BSO effectively reduce the viability of VCaP cells. […] The viability loss of VCaP cells is rescued by antioxidants and iron chelators. […] Data (n=6-8) represent mean±SD obtained from MTT assay. Statistical significance was assessed by using two-tailed Student's t-tests. ***, P<0.001.

[2] = tested on: AR transcriptional activity in MDA-kb2 cells; assay: cells; assay type: cell-based; details: DHT 1 nM; for suppression of DHT-stimulated luciferase activity: 1-5 μM; for AR inhibition at higher concentrations relative to comparators: 2.5 and 5 μM; for inhibition at 1 µM: MDA-kb2, 1 μM compound, read-out: inhibition of DHT-stimulated luciferase activity
Procedure: MDA-kb2-cell-based ARE luciferase assays were performed to assess the influence of 2-63 and related compounds on AR transcriptional activity. […] Upon androgen stimulation and addition of a luciferase substrate, […], and the intensity is proportional to the extent of AR activation. An agent that either antagonistically competes with DHT for AR binding or reduces the expression of AR diminishes luciferase activity/fluorescence signal in this experimental system. […] 10b (an alcohol) and 11 b (an azide) are synthetic precursors of the ITC hybrid 12b.
Luciferase Assay. […] For all procedures, cells were incubated at CO2 free condition. Steady-Glo® (Promega Corp., Madison, WI) reagent was added to culture media with shaking for 10 min. Samples (100 μL) were transferred to an opaque 96-well white plate, and luminescence was measured using a luminometer.

VCaP cells [3] = assay: BSO pretreatment plus drug, MTT viability, VCaP cells; details: drug 2.5 μM, BSO pretreatment 16 h, 24 h
Procedure: (§4) Cell viability was then assessed using an MTT assay.
(§5) PCa cells (6×10^3 cells/well) were seeded into 96-well plates overnight and then treated with indicated compounds at indicated concentrations and time durations. The MTT (3-(4, 5-Dimethylthiazol-2-yl)-2,5-diphenyltetrazolium bromide) assay was performed according to the standard protocol. Briefly, MTT (0.5 mg/mL) was incubated with cells at 37° C. for 3 hours. Supernatant was removed, followed by the addition of dimethyl DMSO (100 μl). After incubation for 30 minutes at 37° C., absorbance was read at 570 nm on a microplate reader.

C4-2 cells [4] = details: for potentiation by BSO compared to 2-63, C4-2 cells: drug 2.5 μM, BSO pretreatment 16 h, 24 h
Procedure: as §4, §5

22Rv1 cells [5] = assay: BSO pretreatment plus drug, MTT viability, 22Rv1 cells; details: drug 2.5 μM, BSO pretreatment 16 h, 24 h
Procedure: as §4, §5

VCaP cells [6] = assay: MTT viability assay, VCaP cells; assay type: cell-based; details: 72 h, full media, MTT, read-out: IC50, viability of VCaP cells
Excerpt: (§1) Biological Characterization. ITC-ARi hybrid drugs effectively reduce the viability of PCa cells. By using an MTT assay, it was first examined if the newly synthesized hybrid drugs affect the viability of CRPC-relevant PCa cells. PCa VCaP cells naturally express abundant wild type FL AR as well as AR splice variants (e.g., AR-V7). These cells were, therefore, used as one of the cell culture models in this work to investigate the drug-caused viability loss and AR downregulation.

C4-2 cells [7] = details: 5 μM, DHT 1 nM, charcoal stripped FBS, 6 days
Procedure: The medium and drug were refreshed every two days.
The anti-PCa potential of 2-63 was further characterized by assessing its inhibitory effects on DHT-stimulated C4-2 cell growth. […] C4-2 cells were cultured in charcoal-stripped, steroid-free medium and cells were stimulated with androgen.

[8] = tested on: AR, AR-V7, c-Myc, HO-1, Hsp70; assay: Western blotting under BSO combination, VCaP cells; assay type: cell-based
Procedure: (§2) It was first investigated if iron chelators or antioxidants could rescue the viability of drug combination-treated cells. […] HO-1 catalyzes the decomposition of heme into carbon monoxide, biliverdin, and Fe^2+. […] Both Fer-1 and the lipophilic antioxidant α-Toc can effectively scavenge radicals in phosphatidylcholine lipid bilayers and break the redox cycle that generates lipid hydroperoxide.
(§3) Western Blotting. […] Proteins in cell lysates (40 μg) were separated using electrophoresis on SDS-PAGE and transferred onto PVDF (polyvinylidenedifluoride) membranes. Membranes were blocked in 5% fat-free milk followed by incubation with primary antibodies overnight at 4° C., and the secondary horseradish peroxidase-conjugated anti-rabbit or anti-mouse antibodies. The blots were developed in the Enhanced Chemiluminescence mixture and detected by ImageQuant™ LAS 4000 imaging system (GE). Density of protein bonds were calculated and analyzed by using imageJ software downloaded from the National Institute of Health website.

VCaP cells [9] = assay: Ferroptosis rescue/enhancement of 2-63 plus BSO, MTT, VCaP cells; assay type: cell-based; details: for rescue of 2-63 plus BSO-caused viability loss, VCaP cells: BSO 100 μM 16 h, 2-63 2.5 μM 24 h, DFO 100 μM, α-Toc 100 μM, Fer-1 0.5 μM, ZnPP 3 μM
Excerpt: as §2

22Rv1 cells [10] = assay: Ferroptosis rescue of 2-63 plus BSO, MTT, 22Rv1 cells; assay type: cell-based; details: BSO 100 μM 16 h, 2-63 5 μM 24 h; DFO 100 μM, α-Toc 100 μM, Fer-1 0.5 μM, ZnPP 3 μM
Excerpt: as §2

22Rv1 cells [11] = assay: MTT viability assay, 22Rv1 cells; assay type: cell-based; details: 5 μM, 72 h
Excerpt: as §1

C4-2 cells [12] = assay: MTT viability assay, C4-2 cells; assay type: cell-based; details: 5 μM, 72 h
Excerpt: as §1

[13] = tested on: acetylation of α-tubulin and histone H3 (markers for HDAC6 and nuclear HDAC inhibition); assay: Western blotting of acetylation markers in VCaP cells; assay type: cell-based; details: 16 h, 2-63 and 12b 5 and 15 μM, SAHA 1 μM; for α-tubulin acetylation: SFN 15 μM
Procedure: as §3

Hsp90, Hsp70, HO-1 = assay: Western blotting of Hsp90, Hsp70 and HO-1 in VCaP cells; assay type: cell-based; details: 16 h, 5 and 15 μM
Procedure: as §3

Compound: CN(C)C/C=C/C(=O)Nc1ccc(N2C(=S)N(c3ccc(C#N)c(C(F)(F)F)c3)C(=O)C2(C)C)cc1F [3-79, (E)-N-(4-(3-(4-cyano-3-(trifluoromethyl)phenyl)-5,5-dimethyl-4-oxo-2-thioxoimidazolidin-1-yl)-2-fluorophenyl)-4-(dimethylamino)but-2-enamide]
- potency of 3-79 in viability suppression with BSO (VCaP cells [1]; VCaP, 3-79 10 μM plus BSO 100 μM): increased under GSH deficient conditions

Compound: CC1(C)C(=O)N(c2ccc(C#N)c(C(F)(F)F)c2)C(=S)N1c1ccc(CCCCCCO)nc1 [10b, 4-(3-(6-(6-Hydroxyhexyl)pyridin-3-yl)-4,4-dimethyl-5-oxo-2-thioxoimidazolidin-1-yl)-2-(trifluoromethyl) benzonitrile]
- suppression of DHT-stimulated luciferase activity [2]: decreased luciferase activity in a dose-dependent manner
- AR inhibition at higher concentrations relative to comparators [2]: Enz-comparable
- inhibition at 1 µM [2]: 60%

Compound: CC1(C)C(=O)N(c2ccc(C#N)c(C(F)(F)F)c2)C(=S)N1c1ccc(CCCCCCN=[N+]=[N-])nc1 [11b, 4-(3-(6-(6-Azidohexyl)pyridin-3-yl)-4,4-dimethyl-5-oxo-2-thioxoimidazolidin-1-yl)-2-(trifluoromethyl) benzonitrile]
- potentiation by BSO compared to 2-63, VCaP cells (VCaP cells [3]): more limited
- potentiation by BSO compared to 2-63, C4-2 cells (C4-2 cells [4]): more limited
- suppression of DHT-stimulated luciferase activity [2]: decreased luciferase activity in a dose-dependent manner
- AR inhibition at higher concentrations relative to comparators [2]: Enz-comparable
- inhibition at 1 µM [2]: 60%
- potentiation by BSO compared to 2-63, 22Rv1 cells (22Rv1 cells [5]): more limited

Compound: CC1(C)C(=O)N(c2ccc(C#N)c(C(F)(F)F)c2)C(=S)N1c1ccc(CCCCN=C=S)nc1 [12a, 4-(3-(6-(4-Isothiocyanatobutyl)pyridin-3-yl)-4,4-dimethyl-5-oxo-2-thioxoimidazolidin-1-yl)-2-(trifluoromethyl) benzonitrile]
- IC50 (VCaP cells [6]; Homo sapiens, VCaP): 4.85 µM

Compound: C[C@]12CCC(=O)C[C@@H]1CC[C@@H]1[C@@H]2CC[C@]2(C)[C@@H](O)CC[C@@H]12 [DHT, 5α-dihydrotestosterone, reference compound]
- increase of luciferase activity ([2]; 24 h): 8.6 fold

Compound: CNC(=O)c1ccc(N2C(=S)N(c3ccc(C#N)c(C(F)(F)F)c3)C(=O)C2(C)C)cc1F [Enz, 4-(3-(4-cyano-3-(trifluoromethyl)phenyl)-5,5-dimethyl-4-oxo-2-thioxoimidazolidin-1-yl)-2-fluoro-N-methyl benzamide, reference compound]
- viability reduction of DHT-stimulated C4-2 cells (C4-2 cells [7]): 25%
- expression of examined cellular markers (AR, c-Myc, HO-1) ([8]; VCaP, Enz 10 μM, with or without BSO 100 μM, except upregulating AR-V7): did not affect

Compound: CCOC(=O)c1ccc(NC2CCCCC2)c(N)c1 [Fer-1, ferrostatin-1]
- rescue of 2-63 plus BSO-caused viability loss, VCaP cells (VCaP cells [9]): rescued
- rescue of AR/AR-V7 under 2-63 plus BSO, VCaP cells ([8]; DFO 100 μM, Fer-1 1 μM, BSO 100 μM, 2-63 2.5 μM, 24 h): failed to rescue AR/AR-V7
- rescue of 3-79 plus BSO-induced viability loss, VCaP cells (VCaP cells [1]): rescued
- rescue of 2-63 plus BSO-caused viability loss, 22Rv1 cells (22Rv1 cells [10]): rescued

Compound: CC(=O)NC(CSC(=S)NCCc1ccccc1)C(=O)O (stereo not shown) [PEITC-NAC, reference compound]
- IC50 (VCaP cells [6]): 10.1 µM
- potentiation by BSO compared to 2-63, VCaP cells (VCaP cells [3]): more limited
- potentiation by BSO compared to 2-63, C4-2 cells (C4-2 cells [4]): more limited
- relative potency in viability reduction, 22Rv1 cells (22Rv1 cells [11]): 12b>2-63>PEITC-NAC
- relative potency in viability reduction, C4-2 cells (C4-2 cells [12]): 12b>2-63>PEITC-NAC
- potentiation by BSO compared to 2-63, 22Rv1 cells (22Rv1 cells [5]): more limited

Compound: O=C(CCCCCCC(=O)Nc1ccccc1)NO [SAHA, suberoylanilide hydroxamic acid, reference compound]
- histone H3 acetylation [13]: induced notable global acetylation
- α-tubulin acetylation [13]: induced notable global acetylation

Compound: C[S+]([O-])CCCCN=C=S (stereo not shown) [SFN, sulforaphane, reference compound]
- α-tubulin acetylation [13]: upregulated
- HO-1 protein level (Hsp90, Hsp70, HO-1): dose-dependently upregulated
- Hsp70 protein level (Hsp90, Hsp70, HO-1): significantly induced
- Hsp90 protein level (Hsp90, Hsp70, HO-1): did not change

Compound: C=CC1=C(C)c2cc3[n-]c(cc4[n-]c(cc5nc(cc1n2)C(C)=C5C=C)c(C)c4CCC(=O)O)c(CCC(=O)O)c3C.[Zn+2] [ZnPP, Zinc(II) protoporphyrin IX]
- rescue of 2-63 plus BSO-caused viability loss, VCaP cells (VCaP cells [9]): notable cytoprotective effects
- rescue of 2-63 plus BSO-caused viability loss, 22Rv1 cells (22Rv1 cells [10]): notable cytoprotective effects

Compound: Cc1c(C)c2c(c(C)c1O)CC[C@@](C)(CCC[C@H](C)CCC[C@H](C)CCCC(C)C)O2 [α-Toc, α-tocopherol]
- rescue of 2-63 plus BSO-caused viability loss, VCaP cells (VCaP cells [9]): rescued
- rescue of 3-79 plus BSO-induced viability loss, VCaP cells (VCaP cells [1]): rescued
- rescue of 2-63 plus BSO-caused viability loss, 22Rv1 cells (22Rv1 cells [10]): rescued

Compound: ferric ammonium citrate
- effect of exogenous iron on BSO plus 2-63 combination, VCaP cells (VCaP cells [9]; ferric ammonium citrate 25 μM, BSO 100 μM, 2-63 1 μM): exacerbated the lethal effect
- effect of exogenous iron on BSO plus 2-63 combination, C4-2 cells (C4-2 cells [4]; ferric iron 25 μM, BSO 100 μM, 2-63 0.6-5 μM): significantly enhanced the suppressive effects
